In one data set the test system is HSV-2 (strain G). In words: Anti-HSV screening, plaque formation in infected HeLa cells. Format: cell-based, herpes simplex virus. To be noted: HSV-2, MOI 1, 0.1, 0.01, ESP 1, 0.5, 0.25, 0.1 μg/ml, 72 h. How it is done: (§1) Viruses: Two strains of measles virus (MV) were evaluated in this study: 1) strain Edmonston (MV-E), the prototypical lab-adapted strain originally derived from the blood of a human patient in the acute phase of a typical infection, and 2) strain Halle (MV-H), a neurovirulent strain derived from a lymph node biopsy of a human patient with subacute sclerosing panencephalitis. One strain of herpes simplex virus (HSV) was evaluated: HSV-2 (strain G). This strain is a primary isolate derived from an active genital infection.
(§2) Infection conditions: Cells (4×10^4 cells/well) were seeded in 24-well culture plates and pre-treated with ESP for 24 hr prior to infection. Cells were incubated with 100 μl of MV at the indicated MOI for 1 h at 37° C. before conditioned media containing the test compound and 5% FCS was replaced for the assay duration. MV replication was evaluated daily by microscopic analysis until cells were stained with 0.1% cresyl violet dye and scored for cytopathic effects. Similar conditions were employed for HSV-2 with the exception that infections were performed at 35° C. over a test period of 72 h.
(4)—Anti-HSV screening: ESP was evaluated at 1, 0.5. 0.25, 0.1 and 0 μg/ml against HSV-2 at MOI=I, 0.1 and 0.01.

Data set [1] relates to HeLa cells. The data set is described as follows: Overt cytotoxicity by microscopic analysis during the antiviral tests. The data set is classed as cell-based, human. The conditions noted are these: for toxic effects: by 72 h PI.
Source text: (§3) Cells and cell culture: HeLa cells (human cervical carcinoma) were used for these studies. Cells were maintained in DMEM medium supplemented with 10% fetal calf serum (FCS) and antibiotics in a humidified, 5% CO2 environment. Cells were passaged as required by trypsinization.
(§4) Evaluation of toxicity: Acute toxicity was quantified using a standard tetrazole reduction assay as a measure of cell proliferation/viability. Briefly, quadruplicate wells of HeLa cells (1×10^4 cells, 96-well plates) were incubated for 24 h with the ESP or DMSO as a control and the reduction of tetrazolium salt (MTT) to purple formazan by mitochondrial reductases enzymes in viable cells detected as a change in absorbance (λ=500-600 nm). Overt cytotoxicity was also evaluated qualitatively by microscopic analysis over longer exposure periods during the antiviral tests. Toxicity was considered to be evident if cell injury or loss was observed or a reduction in MTT activity of greater than twenty-five percent relative to controls was detected.
as §2

Data set [2] concerns HeLa cells. The data set is described as follows: MTT tetrazole reduction assay, acute toxicity. Format: cell-based, human. The conditions noted are these: 24 h incubation, 65, 10, 1, 0.1, 0.01, 0.001 ng/ml, 0.1% DMSO.
Source text: as §3, §4
(1)—Evaluation of acute toxicity: ESP was assessed by MTT assay as described above using a series of dilutions (w/v): 65, 10, 1, 0.1, 0.01, 0.001 and 0 ng/ml. […] Toxicity was evaluated over a 24 h incubation period, a time period that corresponded to the pre-treatment phase of the anti-viral testing protocol.
Background: Formazan colour is commonly taken as a measure of viable cells.

The test system of data set [3] is measles virus strain Edmonston (MV-E). The data set is described as follows: Anti-viral screening, syncytia formation in infected HeLa cells. The data set is classed as cell-based. How it is done:
as §1, §2

For data set [4], the system named is measles virus strain Halle (MV-H). Described as above. Format: cell-based. To be noted: for reduction of syncytia formation: MV-H infected HeLa cells. How it is done:
as §1, §2

As to `CC[Se]c1ncnc2[nH]cnc12` [ESP], the “viral replication as evidenced by plaque formation, vs vehicle controls” value in the data set with HSV-2 (strain G) is given as “No difference in viral replication”. Besides, the “concentration usable in the absence of toxic effects” value in the data set with HeLa cells [1] was not above 1000 ng/mL. The toxic effects result in the data set on HeLa cells [1] (2.5 μg/ml) and in the data set with HeLa cells [1] (5 μg/ml) was “toxic effects were observed” each time. Also, the overt cytotoxicity entry is “overt cytotoxicity was observed” in the data set with HeLa cells [1] (10 μg/ml, 72 h post-infection) and “overt cytotoxicity was observed” with HeLa cells [1] (65 μg/ml, 24 h post-infection). For the same molecule, the “toxicity during pre-treatment phase” value in the data set with HeLa cells [1] (24 h pre-treatment before infection, 65-0.01 μg/ml) is “no toxicity was evident”. For the same molecule, the toxicity result in the data set with HeLa cells [1] (concentrations less than or equal to 1 μg/ml, time-frames approaching one week) is “No toxicity was observed”. In the data set on HeLa cells [2], the “acute toxicity (MTT assay)” value is given as “toxicity was not observed”. The “syncytia formation vs untreated controls” value in data set [3] (anti-MV screening, MOI 1.0, 0.1, 0.01, ESP 5-0.1 ng/ml as printed) was “did not significantly decrease syncytia formation”. In addition, in data set [3] (preliminary screening, MOI 1.0, 0.1, 0.01, Day 5 PI), the “syncytia formation, treated vs untreated wells” value is “syncytia formation did not differ between treated and untreated wells”. For the same molecule, the “reduction of syncytia formation” value stood at 25% in data set [4] (0.1 μg/ml ESP) and 66% in data set [4] (1 μg/ml ESP). Moreover, in data set [4] (preliminary screening, MV-H, MOI 1.0, 0.1, 0.01, Day 5 PI), the “syncytia formation, treated vs vehicle controls” value is recorded as “a decrease in syncytia formulation was evident”.
